Measured values published in patent US5364615A (priority 1992, dated 1994).

Assays:
[1] = Adverse reactions and toxicity during PCP therapy (Example 3); conditions: inhaled pretreatment; 9 patients
[2] = tested on: Pneumocystis carinii; conditions: in vivo; cited from earlier work
[3] = tested on: Pneumocystis carinii; conditions: cited from earlier work
[4] = human, in vivo; cited from earlier work
[5] = tested on: Pneumocystis carinii; assay: Randomized clinical trial of PCP prophylaxis (Example 8); type: in vivo, human

Structure (SMILES): CC(C)NCC(O)c1cc(O)cc(O)c1 (stereo not drawn) [metaproterenol]
- control of aerosol-related cough [1]: in 9 patients cough was mild and controlled

Structure (SMILES): NCCC[C@](N)(C(=O)O)C(F)F [DFMO, α-difluoromethylornithine]
- efficacy in rat PCP model [2]: hot efficacious
- clinical response ([3]; recent clinical studies): some clinical response

Structure (SMILES): Nc1ccc(S(=O)(=O)c2ccc(N)cc2)cc1 [Dapsone, diaminodiphenylsulfone]
- efficacy in rat PCP model [2]: effective
- failure rate for PCP ([3]; dapsone alone): about 39%

Structure (SMILES): COc1cc(NCc2ccc3nc(N)nc(N)c3c2C)cc(OC)c1OC [trimetrexate]
- adverse reactions [4]: Adverse reactions have been reported
- relapse rate within one month ([3]; human, in vivo): relapse rates within one month appear to be high

Structure (SMILES): Cc1cn([C@H]2C[C@H](N=[N+]=[N-])[C@@H](CO)O2)c(=O)[nH]c1=O [zidovudine]
- reduction of PCP risk ([5]; AZT use, Cox models, with aerosolized pentamidine): two-fold
- mortality ([5]; participants who had taken zidovudine, on aerosolized pentamidine, never taken: 67%): 28%
